The results in this text go back to ChEMBL document CHEMBL1157705, “Carbonic anhydrase inhibitors. Identification of selective inhibitors of the human mitochondrial isozymes VA and VB over the cytosolic isozymes I and II from a natural product-based phenolic library” (Bioorg Med Chem, 2010).

pKi: −log10 of the molar value.

Carbonic anhydrase 1 (Homo sapiens), sequence (P00915 2-261 limits assumed): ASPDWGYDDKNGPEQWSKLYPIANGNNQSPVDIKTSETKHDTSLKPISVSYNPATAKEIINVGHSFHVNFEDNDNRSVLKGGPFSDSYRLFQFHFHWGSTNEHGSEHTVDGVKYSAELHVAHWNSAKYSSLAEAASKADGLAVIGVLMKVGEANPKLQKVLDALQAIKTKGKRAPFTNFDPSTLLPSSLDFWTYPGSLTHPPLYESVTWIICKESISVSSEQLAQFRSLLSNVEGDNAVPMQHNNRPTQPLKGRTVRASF

For the first test, the target named is Carbonic anhydrase 5B, mitochondrial (Homo sapiens) (UniProt Q9Y2D0).
Carbonic anhydrase 5B, mitochondrial (Homo sapiens), sequence (Q9Y2D0 whole entry): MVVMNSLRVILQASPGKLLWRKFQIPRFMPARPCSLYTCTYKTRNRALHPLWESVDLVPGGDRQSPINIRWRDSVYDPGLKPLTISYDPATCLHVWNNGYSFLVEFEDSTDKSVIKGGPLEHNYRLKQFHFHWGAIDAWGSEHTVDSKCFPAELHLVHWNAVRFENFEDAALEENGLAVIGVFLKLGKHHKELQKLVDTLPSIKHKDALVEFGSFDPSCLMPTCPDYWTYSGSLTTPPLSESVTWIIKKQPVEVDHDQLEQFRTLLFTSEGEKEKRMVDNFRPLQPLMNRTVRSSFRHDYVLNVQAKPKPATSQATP
Description: Inhibition of human recombinant carbonic anhydrase 5B by stopped flow CO2 hydration method
Take `COc1cc([C@@H]2[C@@H](C)[C@@H](C)[C@@H]2c2ccc(O)c(OC)c2)ccc1O`: the pKi is 7.10.

For `COc1cc(C[C@@H](C)[C@H](C)Cc2ccc(O)c(OC)c2)ccc1O`, the pKi is 7.15.

For the compound `CCCCNC(=O)Cc1ccc(O)c(Cl)c1`, the pKi is 7.09.

The compound `COC(=O)/C=C/C(=O)O` showed a pKi of 7.01.

On to `COCCNC(=O)Cc1ccc(O)c(Cl)c1`, for which the pKi was 7.08.

Compound `O=C(Cc1ccc(O)c(Cl)c1)NCCc1ccccc1` showed a pKi of 7.04.

As for `O=C(O)/C=C/C(=O)O`, the pKi was 7.05.

Regarding `COc1cc([C@@H]2[C@@H](C)[C@H](C)[C@H]2c2ccc(O)c(OC)c2)ccc1O`, the pKi was 7.16.

The compound `O=C(Cc1ccc(O)c(Cl)c1)NCc1ccccc1` gave a pKi of 7.07.

For the compound `O=C(O)Cc1ccc(O)cc1`, the pKi was 6.97.

With `OCCc1ccc(O)cc1`, the pKi was 6.98.

Regarding `COc1cc(/C=C2\N=C(N)NC2=O)ccc1O`, the pKi was 7.15.

In another test the target is Carbonic anhydrase 2 (Homo sapiens) (UniProt P00918).
`COc1cc([C@@H]2[C@@H](C)[C@@H](C)[C@@H]2c2ccc(O)c(OC)c2)ccc1O` had a Ki of 12.1 µM.

With `COc1cc(C[C@@H](C)[C@H](C)Cc2ccc(O)c(OC)c2)ccc1O`, the affinity corresponds to a Ki of 230 µM.

For the compound `CCCCNC(=O)Cc1ccc(O)c(Cl)c1`, the Ki was found to be 9.4 µM.

As to `COC(=O)/C=C/C(=O)O`, the Ki is 7.5 µM.

`COCCNC(=O)Cc1ccc(O)c(Cl)c1` showed a Ki of 10.4 µM.

The compound `O=C(Cc1ccc(O)c(Cl)c1)NCCc1ccccc1` gave a Ki of 9.8 µM.

Consider `O=C(O)/C=C/C(=O)O`, for which affinity was put at a Ki of 10.5 µM.

`COc1cc([C@@H]2[C@@H](C)[C@H](C)[C@H]2c2ccc(O)c(OC)c2)ccc1O` displayed a Ki of 11.7 µM.

Compound `O=C(Cc1ccc(O)c(Cl)c1)NCc1ccccc1` showed a Ki of 11.4 µM.

For `O=C(O)Cc1ccc(O)cc1`, the Ki amounted to 10.3 µM.

On to `OCCc1ccc(O)cc1`, for which the Ki came to 8.7 µM.

Regarding `COc1cc(/C=C2\N=C(N)NC2=O)ccc1O`, the Ki was 9.6 µM.

Another test addresses Carbonic anhydrase 1 (Homo sapiens) (UniProt P00915).
`COc1cc([C@@H]2[C@@H](C)[C@@H](C)[C@@H]2c2ccc(O)c(OC)c2)ccc1O` gave a Ki of 354 µM.

Consider `COc1cc(C[C@@H](C)[C@H](C)Cc2ccc(O)c(OC)c2)ccc1O`, for which the affinity corresponds to a Ki of 307 µM.

Compound `CCCCNC(=O)Cc1ccc(O)c(Cl)c1` yielded a Ki of 10.7 µM.

On to `COC(=O)/C=C/C(=O)O`, for which the Ki is 284 µM.

Compound `COCCNC(=O)Cc1ccc(O)c(Cl)c1` yielded a Ki of 158 µM.

As for `O=C(Cc1ccc(O)c(Cl)c1)NCCc1ccccc1`, the affinity, expressed as Ki, was 9.6 µM.

`O=C(O)/C=C/C(=O)O` yielded a Ki of 395 µM.

The compound `COc1cc([C@@H]2[C@@H](C)[C@H](C)[C@H]2c2ccc(O)c(OC)c2)ccc1O` displayed a Ki of 368 µM.

Consider `O=C(Cc1ccc(O)c(Cl)c1)NCc1ccccc1`, for which the inhibitory constant (Ki) was found to be 10.5 µM.

The compound `O=C(O)Cc1ccc(O)cc1` returned an inhibition constant (Ki) of 309 µM.

On to `OCCc1ccc(O)cc1`, for which the affinity corresponds to a Ki of 430 µM.

`COc1cc(/C=C2\N=C(N)NC2=O)ccc1O`: the Ki was 10.5 µM.

By pKi is commonly meant −log10 of the Ki, conventionally taken in molar units. A lower pKi goes with a high Ki. Broadly, the Ki is the dissociation constant of the complex between target and ligand, obtained from inhibition or displacement.
